Reference: US20080125432A1 (Devgen NV, priority 2004, published 2008)
Where two headings read alike, the source gives them in different places.

Assays:
[1] = target: T1, human Kv4.3/KChIP2.2 potassium channel (Homo sapiens, UniProt Q9UK17); assay: Whole cell patch clamp, CHO-K1 cells stably expressing human Kv4.3/KChIP2.2; assay type: cell-based; conditions: CHO-K1
T1 construct: expressed in transfected cells
T1 sequence (Q9UK17 1-655): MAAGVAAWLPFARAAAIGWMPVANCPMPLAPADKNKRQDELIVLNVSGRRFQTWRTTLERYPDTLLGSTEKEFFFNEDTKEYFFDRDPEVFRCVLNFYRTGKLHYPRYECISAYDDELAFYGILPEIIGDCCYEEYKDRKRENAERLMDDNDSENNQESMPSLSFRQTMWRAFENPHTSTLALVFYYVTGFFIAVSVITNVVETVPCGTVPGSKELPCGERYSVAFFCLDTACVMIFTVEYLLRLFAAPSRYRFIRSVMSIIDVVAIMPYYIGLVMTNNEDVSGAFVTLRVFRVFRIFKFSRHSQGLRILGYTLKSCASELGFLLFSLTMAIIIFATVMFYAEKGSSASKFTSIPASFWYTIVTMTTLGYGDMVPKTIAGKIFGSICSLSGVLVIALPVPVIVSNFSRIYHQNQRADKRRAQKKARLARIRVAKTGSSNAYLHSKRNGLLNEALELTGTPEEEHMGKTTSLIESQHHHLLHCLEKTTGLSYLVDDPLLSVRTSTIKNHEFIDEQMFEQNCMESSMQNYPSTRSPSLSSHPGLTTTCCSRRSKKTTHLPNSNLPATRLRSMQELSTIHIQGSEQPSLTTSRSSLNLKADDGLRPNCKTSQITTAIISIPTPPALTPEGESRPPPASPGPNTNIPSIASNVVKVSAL
Description: For this experiment, a recombinant CHO-K1 cell line stably expressing the human Kv4.3/KChIP2.2 potassium channel was used. The cells used for this experiment were kept in continuous culture under standard conditions (37° C., air supplemented with 7% CO2). The CHO-K1 Kv4.3/KChIP2.2 cells were kept in Iscove s modified DMEM (Dulbecco's Modified Eagle's Medium) medium (IMEM) supplemented with 100 U/ml Penicillin, 100 μg/ml Streptomycin, 7% fetal calf serum (FCS), 2.5 μg/ml amphotericin, 400 μg/ml G418, and 400 μg/ml Zeocin™. Cells were passed every 3-4 days after detachment using a Trypsin solution. The quality of the cultured cells was guaranteed by vitality and contamination tests. The culture of the cells was performed as described in protocol D hereunder.
10 mM stock solutions of the compounds were prepared in DMSO. Solutions of the compounds were prepared by dilution of stock solution in bath solution. If the required stock solution volume was theoretically below 1 μl, bath solutions with higher compound concentration were used for dilution. The maximal DMSO concentration during experiments was 0.1% (v/v).
Activity of the human Kv4.3/KChIP2.2 channel was investigated using the patch clamp technique in its whole cell mode. This means that the current needed for clamping the whole cell expressing the K^+-channel protein to a specific potential was measured. Experiments were performed using a patch clamp set-up. Technical equipment needed for manipulation of the cells was placed on a vibration-isolated table and shielded with a Faraday cage to minimize electrical noise. The amplifier and control system were placed in a rack outside the Faraday cage. The system consisted of an EPC9 or EPC10 patch clamp amplifier (HEKA, Lambrecht, Germany), and the perfusion system DADVC8 (ALA Scientific, New York, USA) controlled by the Pulse software package (HEKA, Lambrecht, Germany) installed on a personal computer. The pipettes used for patch clamping were made of borosilicate glass.
Measurements were performed at room temperature (20-25° C.). In each experiment (i.e. each cell) only one concentration of the compounds was investigated no cumulative dosages were performed. Each cell acted as its own control. […]
Between voltage pulses the cell was clamped to a holding potential of −80 mV (inside). The test protocols are illustrated in FIG. 1 and Table 4. The test protocol illustrated in FIG. 1a was used to characterize the properties of the Kv4.3/KChIP2.2 channel and to check the quality of the individual patch clamp experiment (voltage control). […] Each test protocol consisted of 4 segments.
After the whole cell configuration was established a current-voltage curve (IV activation 1; FIG. 1a and Table 4a) was recorded under constant superfusion with bath solution to check for Kv4.3/KChIP2.2 expression and the quality of the individual patch clamp experiment (voltage control). Subsequently, 14 test pulses (series 1; FIG. 1b and Table 4b) were applied at 0.1 Hz under constant superfusion with bath solution. The protocol was initiated by a voltage jump to 100 mV (400 ms) to achieve full inactivation. Then the Kv4.3/KChIP2.2 channels were transferred to the open state by depolarization to +40 mV for 300 milliseconds (activation). Only cells generating current amplitudes between 1 nA and 50 nA were used for the experimental procedure. No or negligible rundown was observed.
Then, 36 test pulses (series 2) were applied at 0.1 Hz under constant superfusion with the compound dissolved in bath solution. Finally, another current-voltage curve was recorded in the presence of the compounds (IV activation 2).
Three different types of analysis were used: Inhibition at the peak current, inhibition of translocated charge and inhibition 75 ms after activation at +40 mV (sustained current). The peak current/charge/current at 75 ms was determined using the online analysis tool of the HEKA pulse software package. […]

[2] = remaining current measured after application of the compound and relative to the blank, read-out: Kv4.3 charge in %
[3] = remaining peak height measured after application of the compound and relative to the blank, read-out: Kv4.3 peak in %

melting point [°C]	remaining activity at 1 µM [1, 2] [%]	remaining activity at 1 µM [1, 3] [%]	Compound
183.5 to 188.1	82	91	COc1ccccc1Nc1nc(C)c(C(=O)Nc2ccccc2)s1 [Compound 82, 2-(2-methoxy-phenylamino)-4-methyl-thiazole-5-carboxylic acid phenylamide]
143.2 to 147.6	77	97	COc1ccccc1Nc1nc(C)c(C(=O)NC2Cc3ccccc3C2)s1 [Compound 83, 2-(2-methoxy-phenylamino)-4-methyl-thiazole-5-carboxylic acid indan-2-ylamide]
147.6 to 149.6	87	99	COc1ccccc1Nc1nc(C)c(C(=O)N2Cc3ccccc3C2)s1 [Compound 84, (1,3-dihydro-isoindol-2-yl)-[2-(2-methoxy-phenylamino)-4-methyl-thiazol-5-yl]-methanone]
159.3 to 163.5	82	96	COc1ccccc1Nc1nc(C)c(C(=O)N2CCc3ccccc3C2)s1 [Compound 85, (3,4-dihydro-1H-isoquinolin-2-yl)-[2-(2-methoxy-phenylamino)-4-methyl-thiazol-5-yl]-methanone]
93.2 to 95.6	79	102	COc1ccccc1Nc1nc(C)c(C(=O)N2CCCCC2Cc2ccccc2)s1 (centres unmarked) [Compound 86, (2-benzyl-piperidin-1-yl)-[2-(2-methoxy-phenylamino)-4-methyl-thiazol-5-yl]-methanone]
44.6 to 47.6	85	95	COc1ccccc1Nc1nc(C)c(C(=O)NCCOCc2ccccc2)s1 [Compound 88, 2-(2-methoxy-phenylamino)-4-methyl-thiazole-5-carboxylic acid (2-benzyloxy-ethyl)-amide]
145.7 to 148	55	93	CCOC(=O)c1cccc(Nc2nc(C)c(C(=O)N[C@H]3CCC[C@@H]3OCc3ccccc3)s2)c1 [Compound 89, 3-[5-((1S,2S)-2-benzyloxy-cyclopent-1-ylcarbamoyl)-4-methyl-thiazol-2-ylamino]-benzoic acid ethyl ester]
199.7 to 200.3	85	99	COc1ccccc1Nc1nc(C)c(C(=O)NCc2ccc(CNC(C)=O)cc2)s1 [Compound 96, 2-(2-methoxy-phenylamino)-4-methyl-thiazole-5-carboxylic acid 4-(acetylamino-methyl)-benzylamide]
177.2 to 181.4	–	–	Cc1nc(NC(=O)c2ccc(C#N)cc2)sc1C(=O)N[C@H]1CCC[C@@H]1OCc1ccccc1 [Compound 181, 2-(4-cyano-benzoylamino)-4-methyl-thiazole-5-carboxylic acid ((1S,2S)-2-benzyloxycyclopent-1-yl) amide]
258.6 to 262.9	–	–	COc1ccccc1Nc1nc(C)c(C(=O)N[C@@H](C(=O)O)c2ccccc2)s1 [Compound 212, (R)-{[2-(2-methoxy-phenylamino)-4-methyl-thiazole-5-carbonyl]-amino}-phenyl-aceticacid]
213.8 to 218.9	–	–	Cc1nc(NC(=O)c2ccc(C(N)=O)cc2)sc1C(=O)N[C@H]1CCC[C@@H]1OCc1ccccc1 [Compound 213, N-[5-((1S,2S)-2-benzyloxy-cyclopentylcarbamoyl)-4-methyl-thiazol-2-yl]-terephthalamide]
112.6 to 121.6	–	–	COc1ccccc1Nc1nc(C)c(C(=O)NC2CCN(Cc3ccccc3)C2)s1 (centres unmarked) [Compound 215, 2-(2-methoxy-phenylamino)-4-methyl-thiazole-5-carboxylic acid (1-benzyl-pyrrolidin-3-yl) amide]
167.2 to 170	–	–	COc1ccccc1Nc1nc(C)c(C(=O)N(Cc2ccccc2)c2ccccc2)s1 [Compound 216, 2-(2-methoxy-phenylamino)-4-methyl-thiazole-5-carboxylic acid benzyl-phenyl-amide]
138.3 to 158.2	–	–	COc1ccccc1Nc1nc(C)c(C(=O)NCC2COc3ccccc3O2)s1 (centres unmarked) [Compound 217, 2-(2-methoxy-phenylamino)-4-methyl-thiazole-5-carboxylic acid (2,3-dihydro-benzo[1,4]dioxin-2-ylmethyl) amide]
143.9 to 144.8	–	–	COc1ccc(CNC(=O)c2sc(Nc3ccccc3OC)nc2C)cc1 [Compound 218, 2-(2-methoxy-phenylamino)-4-methyl-thiazole-5-carboxylic acid 4-methoxybenzylamide]
142 to 147.7	–	–	COc1ccccc1Nc1nc(C)c(C(=O)NCc2c(C)cc(Cl)cc2Cl)s1 [Compound 220, 2-(2-methoxy-phenylamino)-4-methyl-thiazole-5-carboxylic acid 2,4-dichloro-6-methyl-benzylamide]
125.9 to 130.2	–	–	COc1ccccc1Nc1nc(C)c(C(=O)NCc2ccccc2)o1 [Compound 221, 2-(2-methoxy-phenylamino)-4-methyl-oxazole-5-carboxylic acid benzylamide]
68.7 to 82.4	–	–	COc1ccc(CNC(=O)c2oc(Nc3ccccc3OC)nc2C)c(OC)c1 [Compound 222, 2-(2-methoxy-phenylamino)-4-methyl-oxazole-5-carboxylic acid 2,4-dimethoxy-benzylamide]
71.6 to 84.3	–	–	COc1ccccc1Nc1nc(C)c(C(=O)NCc2ccc(F)c(C(F)(F)F)c2)o1 [Compound 223, 2-(2-methoxy-phenylamino)-4-methyl-oxazole-5-carboxylic acid 4-fluoro-3-trifluoromethyl-benzylamide]
212.5 to 213.9	–	–	COc1ccccc1Nc1ncc(C(=O)NCc2ccccc2)[nH]1 [Compound 224, 2-(2-methoxy-phenylamino)-3H-imidazole-4-carboxylic acid benzylamide]
134.1 to 136.2	–	–	COc1ccc(CNC(=O)c2cnc(Nc3ccccc3OC)[nH]2)c(OC)c1 [Compound 225, 2-(2-methoxy-phenylamino)-3H-imidazole-4-carboxylic acid 2,4-dimethoxy-benzylamide]
227.9 to 230	–	–	COc1ccccc1Nc1ncc(C(=O)NCc2ccc(F)c(C(F)(F)F)c2)[nH]1 [Compound 226, 2-(2-methoxy-phenylamino)-3H-imidazole-4-carboxylic acid 4-fluoro-3-trifluoromethyl-benzylamide]
